Measured values: patent US11773066B2, “Indazolylcyanoethylamino compound, compositions of same, method of making, and methods of using thereof” (BOEHRINGER INGELHEIM ANIMAL HEALTH USA INC., priority 2018, dated 2023)
≈ marks a conversion by molar mass, not a printed value.

Columns and labels:
[1] = tested on: Haemonchus contortus larvae; assay: In vitro Haemonchus contortus larval motility (L1 to L3 development) assay, MIC90; type: cell-based; conditions: 96 h, L1 larvae in nutrient medium, 27° C., 97% relative humidity, 4 days, motility of L3 vs DMSO control, read-out: MIC90 (minimum concentration inhibiting motility of the larvae by 90%)
Protocol: The following procedure was used for the study: Twenty L1 Haemonchus contortus larvae were added to wells of a microtitre plate containing a nutrient medium and the test compound in DMSO. The microtitre plate was held at 27° C. and 97% Relative humidity for a 4 day period. Under these conditions the added larvae develop to the L3 stage. The efficacy of a compound is determined based on the motility of the resulting L3 larvae and compared to the motility of control wells treated with DMSO only.

[2] = tested on: Cooperia punctata; assay: In vivo efficacy in experimentally infected calves, worm count reduction; conditions: oral, single treatment Day 0, necropsy Day 16, vs untreated control, Compound I 2 mg/kg, eprinomectin 0.075 mg/kg, ivermectin 0.150 mg/kg
Description: (§1) The efficacy of Compound I against parasitic gastrointestinal nematodes in cattle when administered orally as an oral solution was studied. Thirty male castrate dairy calves of approximately 8 to 12 weeks of age were experimentally infected with parasitic nematodes. The calves were inoculated with Haemonchus […] Ostertagia ostertagi on Day -33 and with Cooperia punctata and Cooperia oncophora on Day -21. Calves were allocated to one of the six treatment groups. Calves in Treatment Group 1 were not treated. Calves in Treatment Groups 2-6 were treated on Day 0 as outlined in the Table 2 below with a formulation containing 5% (w/v) of Compound I in a carrier comprising 50% (v/v) PEG 400 with the remainder (QS to 130 mL0 PEG 300. [table] All calves were euthanized on Day 16 and the abomasum and small intestine were recovered from each calf and processed for parasite recovery. All five calves in the untreated control group harbored adequate infections of […]. ostertagi, C. punctate and C. oncophora. The efficacy of each treatment group relative to the control group is shown in Table 3 below: […]

[3] = tested on: Haemonchus placei; assay: as above; conditions: oral, single treatment Day 0, necropsy Day 16, vs untreated control, Compound I 2 mg/kg, eprinomectin 0.075 mg/kg, ivermectin 0.150 mg/kg
Description: as §1

[4] = tested on: Cooperia oncophora; assay: as above; conditions: oral; for efficacy against C. oncophora males in words: Compound I compared with eprinomectin (Group 3) or ivermectin (Group 4); for % Reduction in Worm Counts, C. oncophora Males: single treatment Day 0, necropsy Day 16, vs untreated control, Compound I 2 mg/kg, eprinomectin 0.075 mg/kg, ivermectin 0.150 mg/kg
Description: as §1

[5] = tested on: Ostertagia ostertagi; assay: as above; conditions: oral, single treatment Day 0, necropsy Day 16, vs untreated control, Compound I 2 mg/kg, eprinomectin 0.075 mg/kg, ivermectin 0.150 mg/kg
Description: as §1

[6] = tested on: Cooperia spp.; assay: as above; conditions: oral; for % Reduction in Worm Counts, Cooperia spp. Females: single treatment Day 0, necropsy Day 16, vs untreated control, Compound I 2 mg/kg, eprinomectin 0.075 mg/kg, ivermectin 0.150 mg/kg
Description: as §1

Row | Molecule | MIC90 [1] [ng/mL] | % Reduction in Worm Counts, C. punctata Males [2] [%] | % Reduction in Worm Counts, H. placei Adults [3] [%] | efficacy against C. oncophora males in words [4] | % Reduction in Worm Counts, C. oncophora Males [4] [%] | % Reduction in Worm Counts, O. ostertagi Females [5] [%] | % Reduction in Worm Counts, O. ostertagi Males [5] [%] | efficacy against Cooperia spp. female worms in words ([6]; Compound I compared with eprinomectin (Group 3) or ivermectin (Group 4)) | % Reduction in Worm Counts, Cooperia spp. Females [6] [%]
1 | CC(C#N)(Cn1cc2c(C(F)(F)F)cc(Cl)c(Cl)c2n1)NC(=O)c1ccc(SC(F)(F)F)cc1 (centres unmarked) [Compound II] | 1.2 (≈ 2.22 nM) | – | – | – | – | – | – | – | –
2 | CC(C#N)(Cn1cc2c(C(F)F)cc(Cl)c(Cl)c2n1)NC(=O)c1ccc(SC(F)(F)F)cc1 (centres unmarked) [Compound I] | 0.3 (≈ 0.573 nM) | 100.0 | 100.0 | significantly more effective | 83.0 | 96.4 | 96.3 | significantly more effective | 90.9
3 | CC(C#N)(Cn1cc2ccc(Cl)cc2n1)NC(=O)c1ccc(SC(F)(F)F)cc1 (centres unmarked) [‘999 App, 2.038] | 2.4 (≈ 5.47 nM) | – | – | – | – | – | – | – | –
4 | CC(C#N)(Cn1cc2c(Cl)cc(Cl)cc2n1)NC(=O)c1ccc(SC(F)(F)F)cc1 (centres unmarked) [‘999 App, 2.041] | 2.4 (≈ 5.07 nM) | – | – | – | – | – | – | – | –
5 | CC(C#N)(Cn1cc2c(Cl)cc(Cl)c(Cl)c2n1)NC(=O)c1ccc(SC(F)(F)F)cc1 (centres unmarked) [‘999 App, 2.049] | 1.2 (≈ 2.36 nM) | – | – | – | – | – | – | – | –
6 | eprinomectin | – | 94.7 | 98.9 | – | 0 | 99.4 | 95.7 | – | 55.8
7 | ivermectin | – | 91 | 82 | not effective | 0 | 81 | 75 | – | 46
